Experimental data from US6750375B2, “Transgenic mouse comprising a disruption in an RGS9 gene” (California Institute of Technology, priority 2000, dated 2004).

Key:
Type in all cases: in vivo, mouse
[1] = test system: RGS9 knockout mice and their wild type littermates; assay: Locomotor activity (photobeam cage rack) in unlesioned animals
Description: (§1) RGS9 knockout mice and their wild type littermates were placed in the photobeam cage rack activity system. The photobeam cage rack activity system was made by San Diego Instruments. Single events represent disruption of two distinct light beams 10 cm apart. Before drug administration, animals were allowed to habituate for 30 min. which was scored as baseline activity. […] All drugs were injected intraperitoneally. Drug effects were assessed for 30 min. Bodyweight was measured prior to all drug applications.
Locomotion in Unlesioned Animals

[2] = test system: RGS9 knockout mice and their wild type littermates; assay: Locomotion in dopamine depleted (reserpine treated) animals
Description: as §1
There are several options to induce behavioral changes secondary to a dopaminergic deficit in rodents. However, a strong phenotype in mice is difficult o achieve. […] Therefore, we depleted the animals of dopamine using chronic treatment with reserpine (1 mg /kg per day×5 days). […] Baseline locomotor activity was already greater in homozygous knock-out animals (FIG. 2, n. s.).

[3] = test system: RGS9 knockout mice and their wild type littermates; assay: Dyskinesia rating (abnormal involuntary movements) in reserpine treated animals; settings: apomorphine 5 mg/kg after chronic reserpine
From the text: To score for abnormal involuntary movements we adapted a rating scale that was previously used to score drug induced dyskinesia in monkeys (Goulet and Madra, JPET 2000). Both, trunk and limb, dyskinesia and stereotypic behavior were rated-absent (=O), mild (=1), moderate (=or 2) or severe (=3).
Using a modified monkey dyskinesia scale, there was a dramatic difference between homozygous knock out animals and wild type or heterozygous mice (FIG. 3).

**Q.** Which increase in locomotion ([1]; SKF 38393 10 mg/kg, all animals, no differences between genotypes (p=0.7)) does the source give for Oc1cc2c(cc1O)C(c1ccccc1)CNCC2 (stereo not shown) [SKF 38393] here?
**A.** 2 fold

**Q.** For C[C@H](N)Cc1ccccc1 [amphetamine, d-amphetamine], which “increase in locomotion, homozygous knock-out vs wild type” value ([1]; amphetamine 5 mg/kg intraperitoneal, homozygous knock-out animals, p<0.05, t-test) is on record?
**A.** significantly greater increase in locomotion

**Q.** What about the locomotion ([1]; amphetamine 5 mg/kg intraperitoneal, wild type and RGS9 deficient animals) of the same molecule?
**A.** robust increase in locomotion

**Q.** For CN1CCc2cccc3c2[C@H]1Cc1ccc(O)c(O)c1-3 [apomorphine], which locomotor activity ([2]; apomorphine 5 mg/kg after chronic reserpine, all animals) is on record?
**A.** induced locomotor activity in all animals

**Q.** What about the “locomotor activity, homozygous knock-out vs other animals” value ([2]; apomorphine 5 mg/kg after chronic reserpine, homozygous knock out animals, p<0.05) of the same molecule?
**A.** more pronounced in homozygous knock out animals

**Q.** And the “abnormal motor behavior (dystonia, hyperkinetic movements of the hindlimbs)” value [3]?
**A.** induced abnormal motor behavior only in homozygous knockout animals

**Q.** Which spontaneous locomotion ([2]; reserpine 1 mg/kg per day x 5 days) does the source give for COC(=O)[C@H]1[C@H]2C[C@@H]3c4[nH]c5cc(OC)ccc5c4CCN3C[C@H]2C[C@@H](OC(=O)c2cc(OC)c(OC)c(OC)c2)[C@@H]1OC [reserpine] here?
**A.** greatly reduced spontaneous locomotion
